In ChEMBL document CHEMBL1201862, “PubChem BioAssay data set” (2004):
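All cell lines were grown in 96-well plates and treated with compound for 48 hours. At the GI50, growth is halved.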 Active and inactive are the calls of the source. Rule as the data show it: active = GI50 up to about 1.1 µM and inactive = higher.

Columns and labels:
Assay in all cases: NCI anticancer screen, dose series, 48 h
786-0 = tested on: 786-0
A498 = tested on: A498
A549 = tested on: A549
ACHN = tested on: ACHN
BT-549 = tested on: BT-549
CAKI-1 = tested on: CAKI-1
CCRF-CEM = tested on: CCRF-CEM
COLO 205 = tested on: COLO 205
DU-145 = tested on: DU-145
EKVX = tested on: EKVX
HCC 2998 = tested on: HCC 2998
HCT-116 = tested on: HCT-116
HCT-15 = tested on: HCT-15
HL-60 = tested on: HL-60
HOP-92 = tested on: HOP-92
HT-29 = tested on: HT-29
Hs-578T = tested on: Hs-578T
IGROV-1 = tested on: IGROV-1
K562 = tested on: K562
KM12 = tested on: KM12
LOX IMVI = tested on: LOX IMVI
M14 = tested on: M14
MCF7 = tested on: MCF7
MDA-MB-231 = tested on: MDA-MB-231
MDA-MB-435 = tested on: MDA-MB-435
MDA-N = tested on: MDA-N
MOLT-4 = tested on: MOLT-4
Malme-3M = tested on: Malme-3M
NCI-H226 = tested on: NCI-H226
NCI-H23 = tested on: NCI-H23
NCI-H460 = tested on: NCI-H460
NCI-H522 = tested on: NCI-H522
NCI/ADR-RES = tested on: NCI/ADR-RES
OVCAR-3 = tested on: OVCAR-3
OVCAR-4 = tested on: OVCAR-4
OVCAR-5 = tested on: OVCAR-5
OVCAR-8 = tested on: OVCAR-8
PC-3 = tested on: PC-3
RPMI-8226 = tested on: RPMI-8226
RXF 393 = tested on: RXF 393
SF-295 = tested on: SF-295
SF-539 = tested on: SF-539
SK-MEL-28 = tested on: SK-MEL-28
SK-MEL-2 = tested on: SK-MEL-2
SK-MEL-5 = tested on: SK-MEL-5
SK-OV-3 = tested on: SK-OV-3
SNB-19 = tested on: SNB-19
SNB-75 = tested on: SNB-75
SR = tested on: SR
SW-620 = tested on: SW-620
T47D = tested on: T47D
TK-10 = tested on: TK-10
U-251 = tested on: U-251
UACC-257 = tested on: UACC-257
UACC-62 = tested on: UACC-62
UO-31 = tested on: UO-31

CCN(CC)CCOC(=O)CCN1CC2CCC(CC2)C1
GI50 (786-0): > 100 µM (inactive)
GI50 (A498): > 100 µM (inactive)
GI50 (A549): > 100 µM (inactive)
GI50 (ACHN): > 100 µM (inactive)
GI50 (BT-549): > 100 µM (inactive)
GI50 (CAKI-1): > 100 µM (inactive)
GI50 (CCRF-CEM): > 100 µM (inactive)
GI50 (COLO 205): > 100 µM (inactive)
GI50 (DU-145): > 100 µM (inactive)
GI50 (EKVX): > 100 µM (inactive)
GI50 (HCC 2998): > 100 µM (inactive)
GI50 (HCT-116): > 100 µM (inactive)
GI50 (HCT-15): > 100 µM
GI50 (HL-60): > 100 µM (inactive)
GI50 (HOP-92): > 100 µM (inactive)
GI50 (HT-29): > 100 µM (inactive)
GI50 (Hs-578T): > 100 µM (inactive)
GI50 (IGROV-1): > 100 µM (inactive)
GI50 (K562): > 100 µM (inactive)
GI50 (KM12): > 100 µM (inactive)
GI50 (LOX IMVI): > 100 µM (inactive)
GI50 (M14): > 100 µM (inactive)
GI50 (MCF7): > 100 µM (inactive)
GI50 (MDA-MB-231): > 100 µM (inactive)
GI50 (MDA-MB-435): > 100 µM (inactive)
GI50 (MDA-N): > 100 µM (inactive)
GI50 (MOLT-4): > 100 µM (inactive)
GI50 (Malme-3M): > 100 µM (inactive)
GI50 (NCI-H226): > 100 µM (inactive)
GI50 (NCI-H23): > 100 µM (inactive)
GI50 (NCI-H460): > 100 µM (inactive)
GI50 (NCI-H522): > 100 µM (inactive)
GI50 (NCI/ADR-RES): > 100 µM (inactive)
GI50 (OVCAR-3): > 100 µM (inactive)
GI50 (OVCAR-4): > 100 µM (inactive)
GI50 (OVCAR-5): > 100 µM (inactive)
GI50 (OVCAR-8): > 100 µM (inactive)
GI50 (PC-3): > 100 µM (inactive)
GI50 (RPMI-8226): > 100 µM (inactive)
GI50 (RXF 393): > 100 µM (inactive)
GI50 (SF-295): > 100 µM (inactive)
GI50 (SF-539): > 100 µM (inactive)
GI50 (SK-MEL-28): > 100 µM (inactive)
GI50 (SK-MEL-2): > 100 µM (inactive)
GI50 (SK-MEL-5): > 100 µM (inactive)
GI50 (SK-OV-3): > 100 µM (inactive)
GI50 (SNB-19): > 100 µM (inactive)
GI50 (SNB-75): 78.2 µM (inactive)
GI50 (SR): > 100 µM (inactive)
GI50 (SW-620): > 100 µM (inactive)
GI50 (T47D): > 100 µM (inactive)
GI50 (TK-10): > 100 µM (inactive)
GI50 (U-251): > 100 µM (inactive)
GI50 (UACC-257): > 100 µM (inactive)
GI50 (UACC-62): > 100 µM (inactive)
GI50 (UO-31): > 100 µM (inactive)
